Legend:
Assay type in all cases: in vivo
[1] = test system: barnyardgrass (Echinochloa crus-galli); assay: Test A pre-/postemergence plant response
How it was run: (§1)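 Greenhouse pot test: loam–sand soil; pre- and postemergence sprays applied same day; post plants 2–10 cm, 1–2 leaves. Readout ~10 d, visual % injury vs untreated (0 = none, 100 = complete control).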

corn (Zea mays) = assay: Test A pre-/postemergence plant response
How it was run: as §1

[2] = test system: giant foxtail (Setaria faberi); assay: Test A pre-/postemergence plant response
How it was run: as §1

[3] = test system: large crabgrass (Digitaria sanguinalis); assay: Test A pre-/postemergence plant response
How it was run: as §1

[4] = test system: morningglory (Ipomoea coccinea); assay: Test A pre-/postemergence plant response
How it was run: as §1

[5] = test system: pigweed (Amaranthus retroflexus); assay: Test A pre-/postemergence plant response
How it was run: as §1

[6] = test system: velvetleaf (Abutilon theophrasti); assay: Test A pre-/postemergence plant response
How it was run: as §1

[7] = test system: wheat (Triticum aestivum); assay: Test A pre-/postemergence plant response
How it was run: as §1

[8] = test system: bermudagrass (Cynodon dactylon); assay: Test B pre-/postemergence plant response; details: for Bermudagrass plant response rating: 8 g ai/ha
How it was run: (§2)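 Visual scoring from 0 (no effect) to 100 (complete control) against untreated controls was done 13 to 15 days after greenhouse treatment. Chemicals were formulated in a surfactant-containing non-phytotoxic solvent and applied to soil preemergence or to 1- to 4-leaf (2-18 cm) plants postemergence.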

[9] = test system: cocklebur (Xanthium strumarium); assay: Test B pre-/postemergence plant response; details: for Cocklebur plant response rating: 8 g ai/ha
How it was run: as §2

[10] = test system: yellow nutsedge (Cyperus esculentus); assay: Test B pre-/postemergence plant response; details: for Nutsedge, Yellow plant response rating: 8 g ai/ha
How it was run: as §2

[11] = test system: chickweed (Stellaria media); assay: Test B postemergence plant response; details: for Plant response rating, Chickweed: Postemergence
How it was run: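 Visual injury ratings on a 0–100 scale, where 100 means complete control, were made 13 to 15 days after postemergence treatment of greenhouse-grown plants at the 1- to 4-leaf stage.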

[12] = Postemergence, 31 g ai/ha, 0 to 100 scale (0 no effect, 100 complete control)
[13] = Postemergence, 125 g ai/ha, 0 to 100 scale, 0 no effect, 100 complete control
[14] = Preemergence, 31 g ai/ha, 0 to 100 scale, 0 is no effect, 100 is complete control
[15] = Preemergence, 125 g ai/ha, 0 to 100 scale (0 no effect, 100 complete control)
[16] = Postemergence, 16 g ai/ha, scale 0 to 100
[17] = Postemergence, 31 g ai/ha, scale 0 to 100, 0 no effect, 100 complete control
[18] = Postemergence, 62 g ai/ha, scale 0 to 100
[19] = Preemergence, 16 g ai/ha, scale 0 to 100 (0 no effect, 100 complete control)
[20] = Preemergence, 31 g ai/ha, 0 to 100 scale, 0 no effect, 100 complete control
[21] = Preemergence, 62 g ai/ha, scale 0 to 100

Q: Which “Plant response rating, Barnyardgrass” value [1, 12] does the source give for `CCc1cc(-c2ccc(F)cc2)nn1-c1c(O)cnn(C)c1=O` [Compound 25] here?
A: The value was 80.

Q: And the “Plant response rating, Barnyardgrass” value [1, 13]?
A: Its value is 100.

Q: And the “Plant response rating, Barnyardgrass” value [1, 14]?
A: The value was 50.

Q: What about the “Plant response rating, Barnyardgrass” value [1, 15] of the same compound?
A: The value was 100.

Q: And the “Plant response rating, Corn” value (corn (Zea mays); [12])?
A: Its value is 20.

Q: What about the “Plant response rating, Corn” value (corn (Zea mays); [13]) of the same compound?
A: The value was 80.

Q: And the “Plant response rating, Corn” value (corn (Zea mays); [14])?
A: Its value is 0.

Q: And the “Plant response rating, Corn” value (corn (Zea mays); [15])?
A: The value was 50.

Q: And the “Plant response rating, Foxtail, Giant” value [2, 12]?
A: The value was 90.

Q: What about the “Plant response rating, Foxtail, Giant” value [2, 13] of the same compound?
A: The value was 100.

Q: What about the “Plant response rating, Foxtail, Giant” value [2, 14] of the same compound?
A: The value was 40.

Q: And the “Plant response rating, Foxtail, Giant” value [2, 15]?
A: Its value is 100.

Q: And the “Plant response rating, Crabgrass, Large” value [3, 12]?
A: The value was 60.

Q: And the “Plant response rating, Crabgrass, Large” value [3, 13]?
A: Its value is 90.

Q: What about the “Plant response rating, Crabgrass, Large” value [3, 14] of the same compound?
A: Its value is 20.

Q: And the “Plant response rating, Crabgrass, Large” value [3, 15]?
A: Its value is 90.

Q: What about the “Plant response rating, Morningglory” value [4, 12] of the same compound?
A: Its value is 0.

Q: And the “Plant response rating, Morningglory” value [4, 13]?
A: Its value is 0.

Q: What about the “Plant response rating, Morningglory” value [4, 14] of the same compound?
A: The value was 0.

Q: What about the “Plant response rating, Morningglory” value [4, 15] of the same compound?
A: The value was 0.

Q: What about the “Plant response rating, Pigweed” value [5, 12] of the same compound?
A: The value was 0.

Q: What about the “Plant response rating, Pigweed” value [5, 13] of the same compound?
A: Its value is 0.

Q: What about the “Plant response rating, Pigweed” value [5, 14] of the same compound?
A: Its value is 0.

Q: What about the “Plant response rating, Pigweed” value [5, 15] of the same compound?
A: Its value is 0.

Q: What about the “Plant response rating, Velvetleaf” value [6, 12] of the same compound?
A: Its value is 0.

Q: What about the “Plant response rating, Velvetleaf” value [6, 13] of the same compound?
A: Its value is 0.

Q: And the “Plant response rating, Velvetleaf” value [6, 14]?
A: Its value is 0.

Q: What about the “Plant response rating, Velvetleaf” value [6, 15] of the same compound?
A: The value was 0.

Q: And the “Plant response rating, Wheat” value [7, 12]?
A: The value was 0.

Q: What about the “Plant response rating, Wheat” value [7, 13] of the same compound?
A: Its value is 20.

Q: What about the “Plant response rating, Wheat” value [7, 14] of the same compound?
A: The value was 0.

Q: And the “Plant response rating, Wheat” value [7, 15]?
A: Its value is 50.

Q: What about the “Bermudagrass plant response rating” value ([8]; postemergence, 0-100 scale) of the same compound?
A: Its value is 0.

Q: And the “Plant response rating, Bermudagrass” value [8, 16]?
A: The value was 0.

Q: What about the “Plant response rating, Bermudagrass” value [8, 17] of the same compound?
A: The value was 60.

Q: What about the “Plant response rating, Bermudagrass” value [8, 18] of the same compound?
A: The value was 60.

Q: What about the “Bermudagrass plant response rating” value ([8]; Preemergence, scale 0 to 100 (0 no effect, 100 complete control)) of the same compound?
A: Its value is 0.

Q: What about the “Plant response rating, Bermudagrass” value [8, 19] of the same compound?
A: Its value is 70.

Q: And the “Plant response rating, Bermudagrass” value [8, 20]?
A: The value was 80.

Q: And the “Plant response rating, Bermudagrass” value [8, 21]?
A: The value was 100.

Q: And the “Cocklebur plant response rating” value ([9]; postemergence, 0-100 scale)?
A: Its value is 0.

Q: What about the “Plant response rating, Cocklebur” value [9, 16] of the same compound?
A: The value was 0.

Q: And the “Plant response rating, Cocklebur” value [9, 17]?
A: The value was 0.

Q: What about the “Plant response rating, Cocklebur” value [9, 18] of the same compound?
A: Its value is 0.

Q: And the “Plant response rating, Cocklebur” value [9, 19]?
A: The value was 0.

Q: And the “Plant response rating, Cocklebur” value [9, 20]?
A: The value was 0.

Q: What about the “Plant response rating, Cocklebur” value [9, 21] of the same compound?
A: Its value is 0.

Q: What about the “Cocklebur plant response rating” value ([9]; Preemergence, scale 0 to 100) of the same compound?
A: Its value is 0.

Q: What about the “Nutsedge, Yellow plant response rating” value ([10]; postemergence, 0-100 scale) of the same compound?
A: Its value is 0.

Q: And the “Plant response rating, Nutsedge, Yellow” value [10, 16]?
A: The value was 0.

Q: And the “Plant response rating, Nutsedge, Yellow” value [10, 17]?
A: The value was 0.

Q: What about the “Plant response rating, Nutsedge, Yellow” value [10, 18] of the same compound?
A: Its value is 0.

Q: What about the “Plant response rating, Nutsedge, Yellow” value [10, 19] of the same compound?
A: Its value is 0.

Q: What about the “Plant response rating, Nutsedge, Yellow” value [10, 20] of the same compound?
A: Its value is 0.

Q: What about the “Plant response rating, Nutsedge, Yellow” value [10, 21] of the same compound?
A: The value was 0.

Q: And the “Nutsedge, Yellow plant response rating” value ([10]; Preemergence, scale 0 to 100)?
A: The value was 0.

Q: What about the “Chickweed plant response rating” value ([11]; 8 g ai/ha, postemergence, 0-100 scale) of the same compound?
A: Its value is 0.

Q: And the “Plant response rating, Chickweed” value ([11]; 16 g ai/ha, scale 0 to 100)?
A: Its value is 0.

Q: And the “Plant response rating, Chickweed” value ([11]; 31 g ai/ha, scale 0 to 100, 0 no effect, 100 complete control)?
A: The value was 0.

Q: What about the “Plant response rating, Chickweed” value ([11]; 62 g ai/ha, scale 0 to 100) of the same compound?
A: The value was 0.
